What was measured:
[1] = test system: colon tumor cell line xenograft tumors; experiment: Animal tumor models (xenograft); assay type: in vivo, Balb/c (nu/nu) mice; conditions: 160 mg/kg i.p., xenograft mice
Excerpt: To test the ability of the Chk1 inhibitors of the invention to enhance the killing of tumors by DNA damaging agents in mice, xenograft tumor models using colon tumor cell lines are established. 5-fluorouracil (5-FU) or gemcitabine can be used as DNA damaging agents; HT29 and Colo205 (human colon carcinoma) and H460 and Calu-6 (nonsmall cell carcinoma) cells can be used to propagate xenograft tumors in 6-8 week old female […] Balb/c (nu/nu) mice. Mice are maintained in a laminar airflow cabinet under pathogen-free conditions and fed sterile food and water ad libitum. Cell lines are grown to subconfluence in RPMI 1640 media supplemented with 10% FBS, 100 U/mL penicillin, 100 μg/mL streptomycin, and 1.5 mM L-glutamine in a 5% CO2 humidified environment. Single cell suspensions are prepared in CMF-PBS, and cell concentration adjusted to 1×10^8 cells/mL. Mice are inoculated subcutaneously (s.c.) on the right flank or right leg with a total of 1×10^7 cells (100 μL). Mice are randomized (5-15 mice/group) into four treatment groups and used when tumors reach a volume of […] (usually 7-11 days post-inoculation). Tumors are measured with vernier calipers and tumor volumes are estimated using the empirically derived formula: tumor volume (cm^3)=tumor length (cm)×tumor width (cm)×tumor depth (cm)/3.3. […] Tumor size is monitored every other day for the duration of the experiment.

[2] = test system: Chk1 phosphorylation in HT29 cells; experiment: Western blot of Chk1 phosphorylation at serines 317 and 345; assay type: cell-based, human; conditions: 20 μM for two h, then 22 h washout
Excerpt: To determine whether an agent is a Chk1 activator, the phosphorylation state of Chk1 can be measured using phospho-specific antibodies to specific phosphorylation sites on Chk1. […] Liu et al., Genes Dev. 14:1448-59, 2000; Zhao et al., Mol. Cell. Biol. 21:4129-39, 2001; Lopez-Girona et al., Proc. Natl. Acad. Sci. U.S.A. 98:11289-94, 2001; Guo et al., Genes Dev. 14:2745-56, 2000; Gatei et al., J. Biol. Chem. 278:14806-11, 2003; Ng et al., J Biol. Chem. 279(10):8808-19, 2004; Wang et al., Natl Acad Sci USA. 100(26):15387-92, 2003; Stojic et al., Genes Dev. 18(11):1331-44, 2004. These serine sites are phosphorylated by upstream checkpoint kinases, Atm and Atr. Liu et al., Genes Dev. 14:1448-59, 2000; Zhao et al. Mol. Cell. Biol., 21:4129-39, 2001).
The phosphorylation of these sites in response to a candidate Chk1 activator can be monitored by Western blot or immunohistochemistry of tumor cells. […] HT29 cells are treated with 20 μM gemcitabine for two h. The gemcitabine is washed out of the cell growth media and cells are incubated for 22 additional h. Protein lysates are prepared and separated by an SDS-polyacrylamide gel electrophoresis. Proteins are transferred to PVDF membranes and probed with antisera (Cell Signalling) specific for either phosphorylated serine 317 or 345 (Cell Signalling).

[3] = test system: Chk1 serine 296 phosphorylation in HT29 cells; experiment: Western blot of Chk1 phosphorylation at serine 296; assay type: cell-based, human
Protocol: Phosphorylation at this site is not inhibited by wortmannin, which inhibits Atm and Atr. Therefore, the phosphorylation of serine 296 is distinct from phosphorylation at serines 317 and 345. […] Therefore, this approach can be used to monitor Chk1 activity in tumors in response to Chk1 activators. Further, this approach can be used to measure inhibition of Chk1 activation by Chk1 inhibitors.
Thus, HT 29 cells are treated with 20 μM gemcitabine for two h. The gemcitabine is washed out of the cell growth media and cells are incubated for 22 additional h. Protein lysates are prepared and separated by an SDS-polyacrylamide gel electrophoresis. Proteins are transferred to polyvinylidene fluoride (PVDF) membranes and probed with antisera (Cell Signalling) specific for phosphorylated serine 296 (Cell Signalling). […] Further, HT29 cells treated with selective Chk1 inhibitors for 15 min show no serine 296 phosphorylation.

Row | Structure (SMILES) | tumor growth [1] | phosphorylation of Chk1 serines 317 and 345 [2] | phosphorylation of Chk1 serine 296 ([3]; HT29 cells, 20 μM for two h, then 22 h washout) | inhibition of Chk1 serine 296 phosphorylation ([3]; gemcitabine-stimulated tumor cells)
1 | Nc1ccn([C@@H]2O[C@H](CO)[C@@H](O)C2(F)F)c(=O)n1 [gemcitabine, 2′,2′ difluoro-2′-deoxycytidine] | delay in tumor growth is observed | results in the phosphorylation of both serines 317 and 345 | results in the phosphorylation of serine 296 | 
2 | COC[C@H]1OC(=O)c2coc3c2[C@@]1(C)C1=C(C3=O)[C@@H]2CCC(=O)[C@@]2(C)C[C@H]1OC(C)=O [wortmannin] |  |  |  | not inhibited
